Experimental data published in patent US20110070326A1, “OREGANO EXTRACT AND ITS COMPONENTS FOR ENHANCING VIGILANCE” (DSM IP ASSETS B.V., priority 2006, published 2011).

Legend:
[1] = test system: mice; experiment: Porsolt's Forced Swim Test (Behavioral Despair Test), i.p.; type: in vivo, mouse; settings: 32 mg/kg i.p., −30 min; 15 mice
Protocol: The test, which detects antidepressant activity, was carried out as described by Porsolt et al supra. Mice which are forced to swim in a situation from which they cannot escape rapidly become immobile. Antidepressants decrease the duration of immobility.
Mice were individually placed in cylinders (Height=24 cm, Diameter=13 cm) containing 10 cm water (22° C.) from which they could not escape. The mice were placed in the water for 6 minutes and the duration of immobility during the last 4 minutes was measured.
15 mice were studied per each of the four groups.
Oregano extract 1 was evaluated at 3 doses (10, 30 and 60 mg/kg), administered i.p. 30 minutes before the test, and compared with a control group, administered vehicle in the same manner. The thus administered […] was dissolved in vehicle (saline solution containing 3% (v/v) DMSO and 3% (v/v) Tween® 80). Venlafaxine (16 mg/kg, i.p.), as comparison substance, and imipramine (32 mg/kg, i.p.), as reference compound, were administered under the same experimental conditions.
Data were analyzed by comparing the treated groups with the control group using unpaired Student's t tests and are presented in Table 3.

[2] = test system: mouse; experiment: Porsolt's Forced Swim Test after subchronic oral gavage; type: in vivo; settings: 32 mg/kg p.o., −24, −5, −1 h
Protocol: This test, which detects antidepressant activity, was performed in the same manner as that described in example 7, except that the route of administering the compound and the doses were different. Oregano extract 4 was evaluated at 3 doses (75, 150, and 300 mg/kg), administered orally (p.o.) 24, 5, and 1 hour before the test, and compared with a vehicle control group. The thus administered […] was dissolved in tocopherol-stripped corn oil “vehicle”). The control group was administered vehicle (p.o.), while imipramine (32 mg/kg, p.o.; dissolved in water) was administered to a separate group as reference compound, 24, 5 and 1 h prior to the test.
Mice were individually placed in cylinders (Height=24.5 cm, Diameter=19.5 cm) containing 13.5 cm water (22° C.) from which they could not escape. The mice were placed in the water for 6 minutes, automatically viewed via a video camera and monitored by a commercially available software system (VideoMot2, TSE Systems GmbH, Germany), and the duration of immobility during the last 4 minutes was measured.
10 mice were studied per each of the five groups. Data were analyzed by comparing the treated groups and the positive control group with the vehicle group using Analysis of Variance (ANOVA) and the Bonferroni post-hoc test.

[3] = target: T1, human serotonin re-uptake transporter (hSERT) (Homo sapiens, UniProt P31645); experiment: Serotonin uptake inhibition in HEK-293 cells expressing hSERT; type: cell-based; settings: single compounds; transfected HEK-293 cells, 20 nM 3H-serotonin, 30 minutes; read-out: IC50 for tritiated serotonin uptake
T1 construct: host or cells: HEK-293
Protocol: HEK-293 cells stably expressing the human serotonin re-uptake transporter (hSERT) were obtained from R. Blakely, Vanderbilt University, USA. The cells were routinely grown in Dulbecco's Modified Eagle's Medium, purchased from Bioconcept, Allschwil, Switzerland containing 10% fetal calf serum, penicillin, streptomycin, L-glutamine and the antibiotic G418 and passaged by trypsinisation. 1 day prior to the assay cells were seeded in the above mentioned medium. […] Serotonin uptake into the cells was determined by addition of radio-labeled (3H) serotonin (Amersham Biosciences GE Healthcare, Slough, UK) to a concentration of 20 nM, and incubation for 30 minutes at room temperature. Following removal of unincorporated label by gentle washing three times with the above buffer, incorporated serotonin was quantified by liquid scintillation counting.

[4] = target: T2, human dopamine transporter (hDAT) (Homo sapiens, UniProt Q01959); type: cell-based; settings: transfected CHO-Ki cells, 50 nM [3H]Dopamine; n = 2; read-out: IC50 for inhibition of dopamine reuptake
T2 construct: expressed in transfected cells; host or cells: CHO-Ki (CHO-K1)
Protocol: CHO-Ki/hDAT cells expressing the human dopamine transporter (hDAT) were plated before the assay. Cells (2×10^5/ml) were incubated with oregano extract and/or vehicle in modified Tris-HEPES buffer pH 7.1 at 25° C. for 20 minutes before addition of 50 nM [^3H]Dopamine for 10 minutes. Specific signal was determined in the presence of 10 μM nomifensine. Cells were then solubilized with 1% SDS lysis buffer. Reduction of [^3H]Dopamine uptake by 50 percent or more (≧50%) relative to vehicle controls indicates significant inhibitory activity.

T1 sequence (P31645 whole entry): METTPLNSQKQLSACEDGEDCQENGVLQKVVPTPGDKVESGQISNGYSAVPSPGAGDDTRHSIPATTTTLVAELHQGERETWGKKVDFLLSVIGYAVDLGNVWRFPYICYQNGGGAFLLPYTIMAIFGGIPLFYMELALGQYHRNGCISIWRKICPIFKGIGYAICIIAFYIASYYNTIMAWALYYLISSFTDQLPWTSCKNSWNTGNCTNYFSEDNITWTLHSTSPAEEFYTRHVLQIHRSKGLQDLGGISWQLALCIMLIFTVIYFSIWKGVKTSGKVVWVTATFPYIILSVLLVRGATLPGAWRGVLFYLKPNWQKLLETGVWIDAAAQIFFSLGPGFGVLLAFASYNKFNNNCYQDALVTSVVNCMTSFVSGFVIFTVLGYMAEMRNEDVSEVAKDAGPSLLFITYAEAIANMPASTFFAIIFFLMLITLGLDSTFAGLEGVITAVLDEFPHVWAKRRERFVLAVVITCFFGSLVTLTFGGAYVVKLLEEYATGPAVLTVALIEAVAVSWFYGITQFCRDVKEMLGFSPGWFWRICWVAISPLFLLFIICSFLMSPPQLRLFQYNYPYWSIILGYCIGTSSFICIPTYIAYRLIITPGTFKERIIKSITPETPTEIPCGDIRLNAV
T2 sequence (Q01959 whole entry): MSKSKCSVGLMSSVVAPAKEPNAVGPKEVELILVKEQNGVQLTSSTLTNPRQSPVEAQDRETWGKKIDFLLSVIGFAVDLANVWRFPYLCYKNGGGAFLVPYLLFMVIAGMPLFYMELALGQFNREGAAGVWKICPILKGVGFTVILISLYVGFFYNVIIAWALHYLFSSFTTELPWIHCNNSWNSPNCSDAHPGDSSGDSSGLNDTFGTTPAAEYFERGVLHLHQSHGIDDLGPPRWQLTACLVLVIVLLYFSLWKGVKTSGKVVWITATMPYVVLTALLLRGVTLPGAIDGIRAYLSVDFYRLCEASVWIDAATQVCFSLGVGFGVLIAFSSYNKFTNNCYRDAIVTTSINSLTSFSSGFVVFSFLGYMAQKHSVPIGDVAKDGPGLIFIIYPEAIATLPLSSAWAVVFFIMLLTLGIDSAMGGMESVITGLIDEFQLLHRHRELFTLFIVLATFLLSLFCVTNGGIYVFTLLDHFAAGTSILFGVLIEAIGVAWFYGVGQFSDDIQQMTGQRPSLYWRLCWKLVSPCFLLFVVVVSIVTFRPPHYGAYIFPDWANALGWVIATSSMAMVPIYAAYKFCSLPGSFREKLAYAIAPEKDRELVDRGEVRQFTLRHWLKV

SMILES	DURATION OF IMMOBILITY % change from control [1] [%]	DURATION OF IMMOBILITY (s) Mean ± s.e.m. [1] [s]	DURATION OF IMMOBILITY % change from control [2] [%]	DURATION OF IMMOBILITY (s) Mean ± s.e.m. ([2]; 10 mice) [s]	IC50 [3] [µM]	IC50 [4] [µM]
CN(C)CCCN1c2ccccc2CCc2ccccc21 [Imipramine]	−70	49.7 ± 7.9	−50	64.59 ± 8.26		
Cc1cc(O)c(C(C)C)cc1O [Thymoquinol]					26.6	65.6 ± 1.2
Cc1ccc(C(C)C)c(O)c1 [Thymol]					5	
